Measurements from PubChem BioAssay AID2060607 (Molecular Pharmacology Branch, DTP, NCI, 2025).
Several values for one entry are separate records, joined by “and”; a condition that tells them apart may be missing. Identical values can stand only once.

Tested on: 876862-298-R-J1-PDC complex spheroids, viability % test/control
Experiment: Anticancer human tumor 876862-298-R-J1-PDC patient-derived endometrial carcinoma cell line growth inhibition [CLK]
Details: for viability, T/C: stronger effect = lower value
Description: A high-throughput screen of multi-cell type tumor spheroids was designed to identify active combinations of […] and targeted small molecules. Complex spheroids include a stromal component modeled by human endothelial cells (HUVEC) and fibroblasts modeled by human mesenchymal stem cells (MSCs). The concentration ranges selected for each drug and investigational agent were based upon clinically achievable concentrations if the clinical Cmax of the agent was known.
Compounds. The drugs and investigational agents: cirtuvivint (SM08502; NSC835563), CC-671 (NSC850746), vemurafenib (NSC761431), tapotoclax (NSC804041), sotorasib (NSC818433), adagrasib (NSC831453), MRTX-1133 (NSC836407), BAY2416964 (NSC825713), copanlisib (NSC816437), inavolisib (NSC800729), abemaciclib (NSC768073), osimertinib (NSC779217), entinostat (NSC756642), eltanexor (KPT-8602, NSC794443), venetoclax (NSC766270), ceralasertib (NSC777638), bortezomib (NSC756655), olaparib (NSC753686), talazoparib (NSC767125), alisertib (NSC759677), peposertib (NSC802822), gemcitabine (NSC613327), 5-fluorouracil (NSC19893), SN-38 (NSC673596), oxaliplatin (NSC266046), paclitaxel (NSC125973), and doxorubicin (NSC123127), were obtained from the National Cancer Institute (NCI) Developmental Therapeutics Program Chemical Repository. The FDA-approved anticancer drug set is available from the Developmental Therapeutics Program at https://dtp.cancer.gov/organization/dscb/obtaining/available plates.htm. […] The stock solutions were prepared in dimethyl sulfoxide (DMSO, Sigma-Aldrich, St. Louis, MO, cat. D2650), except for the platinum complexes which were prepared in saline (Quality Biological, Gaithersburg, MD, cat. 114-055-101), at 800-fold the tested concentration and stored at -70 degrees C prior to their use. All drugs and investigational agents were tested over a range starting from a high concentration at or near the clinical Cmax and decreasing in half-log increments. If the clinical Cmax for an agent had not been determined, the highest concentration tested was 10 microM.
Cell Culture. All cells were maintained in an incubator at 37 degrees C and 5% CO2 with 95% humidity. The PDC lines were cultured according to standard operating procedures established by the NCI PDMR. Briefly, all PDCs were thawed and cultured in Matrigel-coated flasks prepared with a working solution of 1X Ham's F-12 nutrient mix, without supplementation (Invitrogen, Waltham, MA, cat. 11765054), 100 U/mL penicillin-streptomycin (Invitrogen, cat. 15140122), and 2.5% Matrigel (Corning Inc., Corning, NY, cat. 354248) for the first three passages. The 947758-054-R-J2-PDC line was cultured in 6B/Colon 1A media, which includes advanced DMEM/F-12 (Thermo Fisher Scientific, cat. 12634028), 10 mM HEPES (Thermo Fisher Scientific, cat. 15630080), 1X GlutaMAX supplement (Thermo Fisher Scientific, cat. 35050061), 0.1 mg/mL primocin (InvivoGen, cat. ant-pm-2), 10% defined fetal bovine serum, heat inactivated (HyClone Laboratories Inc., cat. SH30070.03HI), 1.25 mM N-Acetyl-L-cysteine (Sigma-Aldrich, cat. A9165), 10 mM nicotinamide (Sigma-Aldrich, cat. N0636), 1X B-27 supplement (Thermo Fisher Scientific, cat. 17504044), 1X N-2 supplement (Thermo Fisher Scientific, cat. 17502048), and 10 microM Y-27632 dihydrochloride (Tocris Bioscience, cat. 1254). The 876862-298-R-J1-PDC was cultured in 6E media, which includes all 6B/Colon 1A media components plus 50% L-WRN conditioned media (ATCC, cat. CRL-3276), 50 ng/mL recombinant human EGF recombinant protein (hEGF; Thermo Fisher Scientific, cat. PHG0311), 10 ng/mL recombinant human fibroblast growth factor 10 (hGFG-10; PeproTech, cat. 100-26), 1 ng/mL recombinant human fibroblast growth factor 2 (hFGF-2; PeproTech, cat. 100-18B), and 1 µM prostaglandin E2 (PGE2; Tocris, cat. 2296). The 227483-062-R1-J1-PDC line was cultured in Panc media, containing all 6E components except hFGF-2, with the addition of 500 nM SB-431542 (Selleckchem, cat. S1067) and 10 nM gastrin (Tocris, cat. 3006). […]

[1] = curve of first compound, second compound 0.0316 µM
[2] = curve of first compound, second compound 0.1 µM
[3] = curve of first compound, second compound 0.316 µM
[4] = curve of first compound, second compound 1 µM
[5] = curve of first compound, second compound 3.16 µM
[6] = curve of first compound, second compound 10 µM
[7] = second compound 0.0316 µM, first compound 0.0316 µM
[8] = second compound 0.0316 µM, first compound 0.1 µM
[9] = second compound 0.0316 µM, first compound 0.316 µM
[10] = second compound 0.0316 µM, first compound 1 µM
[11] = second compound 0.0316 µM, first compound 3.16 µM
[12] = second compound 0.0316 µM, first compound 10 µM
[13] = second compound 0.1 µM, first compound 0.0316 µM
[14] = second compound 0.1 µM, first compound 0.1 µM
[15] = second compound 0.1 µM, first compound 0.316 µM
[16] = second compound 0.1 µM, first compound 1 µM
[17] = second compound 0.1 µM, first compound 3.16 µM
[18] = second compound 0.1 µM, first compound 10 µM
[19] = second compound 0.316 µM, first compound 0.0316 µM
[20] = second compound 0.316 µM, first compound 0.1 µM
[21] = second compound 0.316 µM, first compound 0.316 µM
[22] = second compound 0.316 µM, first compound 1 µM
[23] = second compound 0.316 µM, first compound 3.16 µM
[24] = second compound 0.316 µM, first compound 10 µM
[25] = second compound 1 µM, first compound 0.0316 µM
[26] = second compound 1 µM, first compound 0.1 µM
[27] = second compound 1 µM, first compound 0.316 µM
[28] = second compound 1 µM, first compound 1 µM
[29] = second compound 1 µM, first compound 3.16 µM
[30] = second compound 1 µM, first compound 10 µM
[31] = second compound 3.16 µM, first compound 0.0316 µM
[32] = second compound 3.16 µM, first compound 0.1 µM
[33] = second compound 3.16 µM, first compound 0.316 µM
[34] = second compound 3.16 µM, first compound 1 µM
[35] = second compound 3.16 µM, first compound 3.16 µM
[36] = second compound 3.16 µM, first compound 10 µM
[37] = second compound 10 µM, first compound 0.0316 µM
[38] = second compound 10 µM, first compound 0.1 µM
[39] = second compound 10 µM, first compound 0.316 µM
[40] = second compound 10 µM, first compound 1 µM
[41] = second compound 10 µM, first compound 3.16 µM
[42] = second compound 10 µM, first compound 10 µM
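Also: spheroids exposed to drugs for 7 days before readout.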
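For viability, T/C in this document: 100% = DMSO vehicle control wells.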

`O=c1[nH]cc(F)c(=O)[nH]1` + CN1CCN(c2cc(C(=O)Nc3cc4cc(-c5cnn(C)c5)ccc4cn3)ccn2)CC1 was tested, and the IC50 [1] was 8770 nM, the IC50 [2] was under 31.6 nM and the IC50 [3] was under 31.6 nM. The IC50 [4] was under 31.6 nM, the IC50 [5] was under 31.6 nM and the IC50 [6] was under 31.6 nM. The viability, T/C [7] was 94.5%, the viability, T/C [8] was 89.6% and the viability, T/C [9] was 88.8%. It also gave a viability, T/C [10] of 83%, a viability, T/C [11] of 55.9% and a viability, T/C [12] of 49.4%. For the same compound, the viability, T/C [13] was 41.8%, the viability, T/C [14] was 52.2% and the viability, T/C [15] was 47.8%. For the same compound, the viability, T/C [16] was 41.9%, the viability, T/C [17] was 31.5% and the viability, T/C [18] was 29.9%. The viability, T/C [19] was 3.11%, the viability, T/C [20] was 2.75% and the viability, T/C [21] was 3.62%. It also gave a viability, T/C [22] of 2.92%, a viability, T/C [23] of 2.73% and a viability, T/C [24] of 2.79%. The viability, T/C [25] was 0.65%, the viability, T/C [26] was 0.89% and the viability, T/C [27] was 0.91%. The viability, T/C [28] was 0.83%, the viability, T/C [29] was 0.68% and the viability, T/C [30] was 0.7%. The viability, T/C [31] was 0.68%, the viability, T/C [32] was 1.36% and the viability, T/C [33] was 1.24%. The viability, T/C [34] was 0.98%, the viability, T/C [35] was 1.14% and the viability, T/C [36] was 1.44%. For the same compound, the viability, T/C [37] was 0.57%, the viability, T/C [38] was 0.53% and the viability, T/C [39] was 0.54%. The viability, T/C [40] was 0.77%, the viability, T/C [41] was 0.83% and the viability, T/C [42] was 0.73%.
`CC(CO)NC(=O)c1cc(-c2ccc(Cl)cc2)nn(-c2cnn(C)c2)c1=O` (stereo unspecified) + CNC(=O)c1ccc(Nc2nc(OC3CCCC3)c3c(-c4ccc5nc(C)oc5c4)c[nH]c3n2)c(OC)c1 showed an IC50 [1] of over 10000 nM, an IC50 [2] of under 31.6 nM and an IC50 [3] of under 31.6 nM. For the same compound, the IC50 [4] was under 31.6 nM, the IC50 [5] was under 31.6 nM and the IC50 [6] was under 31.6 nM. The viability, T/C [7] was 68.7%, the viability, T/C [8] was 81% and the viability, T/C [9] was 66.9%. It also gave a viability, T/C [10] of 67.7%, a viability, T/C [11] of 62.9% and a viability, T/C [12] of 55.7%. For the same compound, the viability, T/C [13] was 41%, the viability, T/C [14] was 53% and the viability, T/C [15] was 44.9%. It also gave a viability, T/C [16] of 48.5%, a viability, T/C [17] of 46.1% and a viability, T/C [18] of 42.7%. The viability, T/C [19] was 38.7%, the viability, T/C [20] was 43.8% and the viability, T/C [21] was 39.7%. The viability, T/C [22] was 37.9%, the viability, T/C [23] was 42.7% and the viability, T/C [24] was 42.1%. For the same compound, the viability, T/C [25] was 33.8%, the viability, T/C [26] was 32.6% and the viability, T/C [27] was 38.9%. It also gave a viability, T/C [28] of 33.3%, a viability, T/C [29] of 30% and a viability, T/C [30] of 31.3%. The viability, T/C [31] was 24%, the viability, T/C [32] was 25.1% and the viability, T/C [33] was 21.7%. It also gave a viability, T/C [34] of 25.5%, a viability, T/C [35] of 27.2% and a viability, T/C [36] of 22.4%. It also gave a viability, T/C [37] of 23.9%, a viability, T/C [38] of 21.2% and a viability, T/C [39] of 20.5%. For the same compound, the viability, T/C [40] was 23.8%, the viability, T/C [41] was 23.1% and the viability, T/C [42] was 20.9%.
`CC1(C)CCC(CN2CCN(c3ccc(C(=O)NS(=O)(=O)c4ccc(NCC5CCOCC5)c([N+](=O)[O-])c4)c(Oc4cnc5[nH]ccc5c4)c3)CC2)=C(c2ccc(Cl)cc2)C1` was tested, and the viability, T/C (compound 0.0316 µM) was 102% and 88.4%, the viability, T/C (compound 0.1 µM) was 92% and 101% and the viability, T/C (compound 0.316 µM) was 105% and 99.1%. For the same compound, the viability, T/C (compound 1 µM) was 102% and 106%, the viability, T/C (compound 3.16 µM) was 111% and 121% and the viability, T/C (compound 10 µM) was 18.4% and 14.2%. The IC50 (curve of compound) was 6490 nM and 6290 nM.
